Test results taken from US11026942B2, “Agent for preventing and/or treating Alzheimer's disease” (KYOTO UNIVERSITY, priority 2015, dated 2021).
Where two headings read alike, the source gives them in different places.

Tests used:
Format in all cases: cell-based, human
[1] = system: sAPPα; assay: sAPPα in FAD1 iPS cell-derived nerve cells (secondary screening); design: scale not given here; settings: secondary screening, FAD1 iPS cell-derived nerve cells
Method: (§1) To further study reproducibility of the candidate drugs obtained by the primary screening, secondary screening was conducted. In addition to Aβ40, Aβ42, Aβ42/40 ratio, Aβ38, Aβ43, sAPPα, sAPPβ were also studied and each numerical value was obtained.

[2] = system: Aβ43; assay: Aβ43 in FAD1 iPS cell-derived nerve cells (secondary screening); design: scale not given here
Method: as §1

[3] = system: Aβ42; assay: Aβ42 in FAD1 iPS cell-derived nerve cells (primary/secondary screening, dose dependency)
Procedure, shortened: (§2)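 Cerebral cortex neurons were induced from FAD1 patient iPS cells by doxycycline-inducible NGN2, delivered by PiggyBac. Aβ40 and Aβ42 in the culture medium gave the Aβ42/40 ratio, with dose dependency examined in primary and secondary screens. The secondary screen also covered Aβ38, Aβ43, sAPPα and sAPPβ.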

[4] = system: Aβ42/40 ratio; assay: Aβ42/40 ratio in FAD1 iPS cell-derived nerve cells (primary/secondary screening, dose dependency); settings: secondary screening
Procedure, shortened: as §2

[5] = system: sAPPβ; assay: sAPPβ in FAD1 iPS cell-derived nerve cells (secondary screening); design: sAPPβ: scale not given here; settings: for sAPPβ: secondary screening, FAD1 iPS cell-derived nerve cells
Method: as §1

[6] = system: Aβ40; settings: secondary screening, FAD1 iPS cell-derived nerve cells, numerical value (Aβ change rate)
Text: To perform induction from iPS cells to the cerebral cortex nerve early and with high reproducibility, iPS cells introduced with human Neurogenin 2 gene (NGN2) linked to doxycycline-inducible promoter by using PiggyBac were used (FIG. 1a, FIG. 1b, FIG. 4a and FIG. 4b). IPS cells prepared from 4 patients with familial Alzheimer's disease (FAD), 2 patients with sporadic Alzheimer's disease (SAD) and 4 healthy individuals (HC) were used. The iPS cells were established by the method described in Okita K et al., Nature.
Structural formulas (those in the form of salt or halide are also described as free form) and the general names of the candidate compounds are shown in Table 1.
as §1

[7] = system: Aβ38; assay: Aβ38 in FAD1 iPS cell-derived nerve cells (secondary screening); design: scale not given here
Method: as §1

[8] = system: Aβ; assay: Aβ pathology (Aβ amount in medium) in cerebral cortex nerve cells induced from FAD1 patient iPS cells; settings: for Aβ pathology / Aβ lesion (Aβ amount): FAD1 nerve cells; for Aβ pathology: low dose; for Aβ lesion (Aβ amount): compounds added 8 days after differentiation induction, Aβ amount two days later
Text: To perform induction from iPS cells to the cerebral cortex nerve early and with high reproducibility, iPS cells introduced with human Neurogenin 2 gene (NGN2) linked to doxycycline-inducible promoter by using PiggyBac were used (FIG. 1a, FIG. 1b, FIG. 4a and FIG. 4b). IPS cells prepared from 4 patients with familial Alzheimer's disease (FAD), 2 patients with sporadic Alzheimer's disease (SAD) and 4 healthy individuals (HC) were used. The iPS cells were established by the method described in Okita K et al., Nature. […]
as §1

[9] = secondary screening, FAD1 iPS cell-derived nerve cells, numerical value (Aβ change rate)

| Compound | sAPPα [1] | Aβ43 [2] | Aβ42 [3, 9] | Ratio Aβ42/40 [4] | sAPPβ [5] | Aβ40 [6] | Aβ38 [7] | Aβ pathology [8] | action suggested from the sAPP metabolism ([5]; sAPPα, sAPPβ, sAPPβ/α ratio) | Aβ suppressive effect (dopamine series) [8] | Aβ42 ([3]; FAD1 nerve cells, low dose) | Aβ lesion (Aβ amount) [8] | Aβ suppressive effect (dopamine series) ([8]; neuron derived from iPS cell (FAD1)) |
| --- | --- | --- | --- | --- | --- | --- | --- | --- | --- | --- | --- | --- | --- |
| CEFAMANDOLE [compound 66] | 0.79 | 1.11 | 0.97 | 0.9 | 0.78 | 1.08 | 1.11 |  |  |  |  |  |  |
| CC(C(=O)O)c1ccc(-c2ccccc2)c(F)c1 (centres unmarked) [Flurbiprofen] |  |  |  |  |  |  |  | not improved |  |  |  |  |  |
| CC(C)C[C@H]1C(=O)N2CCC[C@H]2[C@]2(O)O[C@](NC(=O)[C@@H]3C=C4c5cccc6[nH]c(Br)c(c56)C[C@H]4N(C)C3)(C(C)C)C(=O)N12 [compound 52, BROMOCRIPTINE] | 1.18 | 0.65 | 0.63 | 0.64 | 0.79 |  | 0.97 |  | BSI-like action | show effects |  |  |  |
| CARBADOX [compound 29] | 0.86 | 0.76 | 0.74 | 0.88 | 0.78 | 0.84 | 0.87 |  |  |  |  |  |  |
| CC1=C(CC(=O)O)c2cc(F)ccc2/C1=C\c1ccc([S+](C)[O-])cc1 (centres unmarked) [sulindac] |  |  |  |  |  |  |  | not improved |  |  |  |  |  |
| CINCHONINE [compound 24] | 0.76 | 0.81 | 0.88 |  | 0.68 | 0.87 |  |  |  |  |  |  |  |
| CC(N)Cc1ccccc1 (centres unmarked) [amphetamine] |  |  |  |  |  |  |  |  |  | show effects |  |  |  |
| DESOXYCORTICOSTERONE [compound 98] | 0.88 | 0.89 | 0.9 | 0.9 | 0.87 | 1 | 1.09 |  |  |  |  |  |  |
| CC(C)[C@H](O)C(=O)N[C@@H](C)C(=O)N[C@@H]1C(=O)N(C)CCc2ccccc21 [semagacestat] |  |  |  |  |  |  |  |  |  |  | increased | improved Aβ lesion |  |
| COc1cc(C)c(/C=C/C(C)=C/C=C/C(C)=C/C(=O)O)c(C)c1C [acitretin] |  |  |  |  |  |  |  |  |  |  |  | improved Aβ lesion |  |
| NCCc1ccc(O)c(O)c1 [compound 90, DOPAMINE] | 0.91 | 0.96 | 0.88 | 0.92 | 0.95 |  | 1.01 |  |  |  |  |  | show effects |
| RIFAXIMIN [compound 97] | 0.91 | 0.92 | 0.84 | 0.91 | 0.95 | 0.92 | 1.09 |  |  |  |  |  |  |
| CC(NC(=O)c1cc(C(=O)NC(Cc2ccccc2)C(O)CNC2CC2)cc(N(C)S(C)(=O)=O)c1)c1ccccc1 (racemic) [RACE inhibitor IV] |  |  |  |  |  |  |  |  |  |  |  | improved Aβ lesion |  |
| TELITHROMYCIN [compound 108] | 0.71 | 0.84 | 0.85 |  | 0.68 | 0.99 |  |  |  |  |  |  |  |
| CC(C)C[C@H](C(=O)O)c1cc(-c2ccc(C(F)(F)F)cc2)cc(-c2ccc(C(F)(F)F)cc2)c1 [JNJ-40418677] |  |  |  |  |  |  |  |  |  |  |  | improved Aβ lesion |  |
| CC(N=C(NC#N)Nc1ccncc1)C(C)(C)C (centres unmarked) [compound 74] | 0.83 | 0.79 | 0.72 | 0.84 | 0.96 |  | 0.92 |  |  |  |  |  |  |
| CN(C)C(=O)C(CCN1CCC(O)(c2ccc(Cl)cc2)CC1)(c1ccccc1)c1ccccc1 [compound 6, LOPERAMIDE] | 0.89 | 0.88 | 0.88 | 0.93 | 0.78 |  | 1.03 |  |  |  |  |  |  |
| CC[N+]1(C)CCCC(OC(=O)C(O)(c2ccccc2)c2ccccc2)C1 (centres unmarked) [compound 42, PIPENZOLATE] | 1.11 | 1.12 | 1.09 | 1.04 | 1.27 |  | 1.3 |  |  |  |  |  |  |
| CCN(CCO)CCCC(C)Nc1ccnc2cc(Cl)ccc12 (centres unmarked) [compound 72, HYDROXYCHLOROQUINE] | 0.85 | 0.87 | 0.9 | 1.01 | 0.72 |  | 1.08 |  |  |  |  |  |  |
| COc1cc2c(cc1OC)[C@@]13CCN4CC5=CCO[C@H]6CC(=O)N2[C@H]1[C@H]6[C@H]5C[C@H]43 [compound 106, BRUCINE] | 0.84 | 0.87 | 0.98 | 1.04 | 0.85 |  | 1.13 |  |  |  |  |  |  |
| CN1C(=O)CC[C@H]1c1cccnc1 [compound 10, COTININE] | 0.81 | 0.87 | 0.87 | 0.94 | 0.81 |  | 1.08 |  |  |  |  |  |  |
| NC(=O)NC1NC(=O)NC1=O (centres unmarked) [compound 116, ALLANTOIN] | 1.05 | 1.13 | 0.88 | 0.96 | 0.93 |  | 1.07 |  |  |  |  |  |  |
| Cc1cccc(C(=O)O)c1O [compound 67, HYDROXYTOLUIC ACID] | 0.83 | 0.77 | 0.79 | 0.86 | 0.66 |  | 0.92 |  |  |  |  |  |  |
| Cc1ccc(NC(=O)c2ccc(CN3CCN(C)CC3)cc2)cc1Nc1nccc(-c2cccnc2)n1 [imatinib] |  |  |  |  |  |  |  | not improved |  |  |  |  |  |
| CCCCOC(=O)c1ccc(O)cc1 [compound 53, BUTYL PARABEN] | 0.74 | 0.81 | 0.94 | 1.02 | 0.69 |  | 1.04 |  |  |  |  |  |  |
| COc1ccccc1N1CCN(CC(O)COc2cccc3ccccc23)CC1 (centres unmarked) [compound 39, NAFTOPIDIL] | 0.73 | 0.9 | 0.86 | 0.86 | 0.64 |  | 1.1 |  |  |  |  |  |  |
| Nc1c2c(nc3ccccc13)CCCC2 [compound 18, TACRINE] | 1.04 | 1.21 | 1 | 1.02 | 1.23 |  | 1.18 |  |  |  |  |  |  |
